Assay results taken from patent publication US20240252488A1 (KOREA RESEARCH INSTITUTE OF CHEMICAL TECHNOLOGY, priority 2020, published 2024).

How the values were obtained:
[1] = test system: FADD−/− Jurkat cells; assay: Necroptosis inhibition assay, TNF-α-induced necroptosis (CellTiter-Glo 2.0); assay type: cell-based, human; conditions: TNF-α 15 ng/mL, FADD−/− Jurkat cells; for Necroptosis inhibition assay (Rescue %) 1 μM: compound 1 μM; for Necroptosis inhibition assay (Rescue %) 10 μM: compound 10 μM
Procedure, shortened: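 FADD−/− Jurkat cells preincubated 30 min at room temperature with compound at 0.1, 1 and 10 μM final, then stimulated with TNF-α (15 ng/mL final) for 20–24 h at 37 °C, 5% CO2. Viability read as ATP luminescence; cytotoxicity and necroptosis inhibition rate calculated from luminescence values.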

[2] = molecular target: T1, MLKL (Homo sapiens, UniProt Q8NB16); assay: MLKL degradation assay in HepG2 cell line (western blot); assay type: cell-based; parameters: endogenous in cells; host or cells: HepG2 or HaCaT; conditions: cell line not given; for Degradation assay (Degradation %) 1 μM: compound 1 μM; for Degradation assay (Degradation %) 10 μM: compound 10 μM
T1 sequence (Q8NB16 1-471): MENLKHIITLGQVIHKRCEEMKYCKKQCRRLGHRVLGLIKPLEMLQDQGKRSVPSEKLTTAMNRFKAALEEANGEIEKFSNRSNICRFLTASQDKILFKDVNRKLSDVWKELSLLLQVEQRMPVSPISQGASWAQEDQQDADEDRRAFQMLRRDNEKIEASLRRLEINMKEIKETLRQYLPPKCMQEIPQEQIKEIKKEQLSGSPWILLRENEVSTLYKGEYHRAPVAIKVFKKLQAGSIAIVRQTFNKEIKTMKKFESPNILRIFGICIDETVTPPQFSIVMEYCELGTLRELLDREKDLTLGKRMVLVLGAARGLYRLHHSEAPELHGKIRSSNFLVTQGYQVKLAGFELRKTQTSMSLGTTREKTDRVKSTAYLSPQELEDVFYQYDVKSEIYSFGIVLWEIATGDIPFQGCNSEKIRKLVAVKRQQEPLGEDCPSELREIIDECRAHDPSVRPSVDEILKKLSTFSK
Procedure, shortened: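 HepG2 cells were treated 20-24 h at 37 °C with compound at 1 or 10 μM final. RIPA lysates were normalized by BCA, and 10-15 μg protein per lane was resolved by SDS-PAGE. MLKL was detected by western blot with chemiluminescence.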

[3] = molecular target: T1, MLKL; assay: Measurement of binding affinity with MLKL receptor (competitive binding assay, Kd); parameters: made in house; host or cells: HEK 293 cell line (T7 phage in E. coli BL21-derived host is also described)
Procedure, shortened: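 Kd from an immobilized-ligand competition format: the DNA-tagged kinase from HEK 293 expression is eluted and quantified by qPCR. Compounds added from 111× DMSO stocks, final DMSO 0.9%.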

How did the “Necroptosis inhibition assay (Rescue %) 1 μM” value [1] turn out when Nc1ncc(-c2cnn(C3CCN(C(=O)CC4CCN(C(=O)CNc5cccc6nnn(C7CCC(=O)NC7=O)c(=O)c56)CC4)CC3)c2)nc1C(=O)O[C@@H](C(=O)Nc1ccc(F)cc1)c1ccccc1 (stereo partly drawn) [TDH-411, (R)-2-((4-fluorophenyl)amino)-2-oxo-1-phenylethyl 3-amino-6-(1-(1-(2-(1-((3-(2,6-dioxopiperidin-3-yl)-4-oxo-3,4-dihydrobenzo[d][1,2,3]triazin-5-yl)glycyl)piperidin-4-yl)acetyl)piperidin-4-yl)-1H-pyrazol-4-yl)pyrazine-2-carboxylate] was run?
The value was 9.91%.

What about the “Necroptosis inhibition assay (Rescue %) 10 μM” value [1] of the same compound?
The value was 10.81%.

And the “Degradation assay (Degradation %) 1 μM” value [2]?
Its value is 53.86%.

And the “Degradation assay (Degradation %) 10 μM” value [2]?
Its value is 44.78%.

And the Kd [3]?
Its Kd is 5.7 nM.

With Nc1ncc(-c2cnn(C3CCN(C(=O)CC4CCN(C(=O)C5CCN(c6cccc7nnn(C8CCC(=O)NC8=O)c(=O)c67)CC5)CC4)CC3)c2)nc1C(=O)O[C@@H](C(=O)Nc1ccc(F)cc1)c1ccccc1 (stereo partly drawn) [TDH-412, (R)-2-((4-fluorophenyl)amino)-2-oxo-1-phenylethyl 3-amino-6-(1-(1-(2-(1-(1-(3-(2,6-dioxopiperidin-3-yl)-4-oxo-3,4-dihydrobenzo[d][1,2,3]triazin-5-yl)piperidine-4-carbonyl)piperidin-4-yl)acetyl)piperidin-4-yl)-1H-pyrazol-4-yl)pyrazine-2-carboxylate] as the compound, how does the “Necroptosis inhibition assay (Rescue %) 1 μM” value [1] read?
The value was 24.36%.

And the “Necroptosis inhibition assay (Rescue %) 10 μM” value [1]?
Its value is 29.48%.

What about the “Degradation assay (Degradation %) 1 μM” value [2] of the same compound?
The value was 72.66%.

And the “Degradation assay (Degradation %) 10 μM” value [2]?
The value was 72.89%.

What about the Kd [3] of the same compound?
The Kd was 2.5 nM.

What does the source list for Nc1ncc(-c2cnn(C3CCN(C(=O)C4CCN(C(=O)CNc5cccc6nnn(C7CCC(=O)NC7=O)c(=O)c56)CC4)CC3)c2)nc1C(=O)O[C@@H](C(=O)Nc1ccc(F)cc1)c1ccccc1 (stereo partly drawn) [TDH-413, (R)-2-((4-fluorophenyl)amino)-2-oxo-1-phenylethyl 3-amino-6-(1-(1-(1-((3-(2,6-dioxopiperidin-3-yl)-4-oxo-3,4-dihydrobenzo[d][1,2,3]triazin-5-yl)glycyl)piperidine-4-carbonyl)piperidin-4-yl)-1H-pyrazol-4-yl)pyrazine-2-carboxylate]?
Necroptosis inhibition assay (Rescue %) 1 μM [1]: 24.79%; Necroptosis inhibition assay (Rescue %) 10 μM [1]: 18.59%; Degradation assay (Degradation %) 1 μM [2]: 71.41%; Degradation assay (Degradation %) 10 μM [2]: 57.83%; Kd [3]: 0.92 nM

With Nc1ncc(-c2cnn(C3CCN(C(=O)C4CCN(C(=O)C5CCN(c6cccc7nnn(C8CCC(=O)NC8=O)c(=O)c67)CC5)CC4)CC3)c2)nc1C(=O)O[C@@H](C(=O)Nc1ccc(F)cc1)c1ccccc1 (stereo partly drawn) [TDH-414, (R)-2-((4-fluorophenyl)amino)-2-oxo-1-phenylethyl 3-amino-6-(1-(1-(1-(1-(3-(2,6-dioxopiperidin-3-yl)-4-oxo-3,4-dihydrobenzo[d][1,2,3]triazin-5-yl)piperidine-4-carbonyl)piperidine-4-carbonyl)piperidin-4-yl)-1H-pyrazol-4-yl)pyrazine-2-carboxylate] as the compound, how does the “Necroptosis inhibition assay (Rescue %) 1 μM” value [1] read?
The value was 17.52%.

What about the “Necroptosis inhibition assay (Rescue %) 10 μM” value [1] of the same compound?
Its value is 13.19%.

What about the “Degradation assay (Degradation %) 1 μM” value [2] of the same compound?
The value was 75.28%.

What about the “Degradation assay (Degradation %) 10 μM” value [2] of the same compound?
Its value is 74.89%.

And the Kd [3]?
Its Kd is 0.79 nM.

Which “Necroptosis inhibition assay (Rescue %) 1 μM” value [1] does the source give for Nc1ncc(-c2cnn(C3CCN(C(=O)CCC4CCN(C(=O)COc5cccc6c5C(=O)N(C5CCC(=O)NC5=O)C6=O)CC4)CC3)c2)nc1C(=O)O[C@@H](C(=O)Nc1ccc(F)cc1)c1ccccc1 (stereo partly drawn) [TDH-415, (R)-2-((4-fluorophenyl)amino)-2-oxo-1-phenylethyl 3-amino-6-(1-(1-(3-(1-(2-((2-(2,6-dioxopiperidin-3-yl)-1,3-dioxoisoindolin-4-yl)oxy)acetyl)piperidin-4-yl)propanoyl)piperidin-4-yl)-1H-pyrazol-4-yl)pyrazine-2-carboxylate] here?
Its value is 41.74%.

What about the “Necroptosis inhibition assay (Rescue %) 10 μM” value [1] of the same compound?
The value was 40.81%.

What about the “Degradation assay (Degradation %) 1 μM” value [2] of the same compound?
The value was 89.91%.

What about the “Degradation assay (Degradation %) 10 μM” value [2] of the same compound?
Its value is 90.14%.

What about the Kd [3] of the same compound?
Its Kd is 1.7 nM.

Which “Necroptosis inhibition assay (Rescue %) 1 μM” value [1] does the source give for Nc1ncc(-c2cnn(C3CCN(C(=O)CCC4CCN(C(=O)COc5ccc6c(c5)C(=O)N(C5CCC(=O)NC5=O)C6=O)CC4)CC3)c2)nc1C(=O)O[C@@H](C(=O)Nc1ccc(F)cc1)c1ccccc1 (stereo partly drawn) [TDH-416, (R)-2-((4-fluorophenyl)amino)-2-oxo-1-phenylethyl 3-amino-6-(1-(1-(3-(1-(2-((2-(2,6-dioxopiperidin-3-yl)-1,3-dioxoisoindolin-5-yl)oxy)acetyl)piperidin-4-yl)propanoyl)piperidin-4-yl)-1H-pyrazol-4-yl)pyrazine-2-carboxylate] here?
Its value is 52.88%.

And the “Necroptosis inhibition assay (Rescue %) 10 μM” value [1]?
The value was 43.06%.

And the “Degradation assay (Degradation %) 1 μM” value [2]?
The value was 93.24%.

What about the “Degradation assay (Degradation %) 10 μM” value [2] of the same compound?
The value was 93.04%.

What about the Kd [3] of the same compound?
Its Kd is 2.4 nM.

Which results are given for Nc1ncc(-c2cnn(C3CCN(C(=O)CCC4CCN(C(=O)C5CCN(c6cccc7c6C(=O)N(C6CCC(=O)NC6=O)C7=O)CC5)CC4)CC3)c2)nc1C(=O)O[C@@H](C(=O)Nc1ccc(F)cc1)c1ccccc1 (stereo partly drawn) [TDH-417, (R)-2-((4-fluorophenyl)amino)-2-oxo-1-phenylethyl 3-amino-6-(1-(1-(3-(1-(1-(2-(2,6-dioxopiperidin-3-yl)-1,3-dioxoisoindolin-4-yl)piperidine-4-carbonyl)piperidin-4-yl)propanoyl)piperidin-4-yl)-1H-pyrazol-4-yl)pyrazine-2-carboxylate]?
Necroptosis inhibition assay (Rescue %) 1 μM [1]: 24.41%; Necroptosis inhibition assay (Rescue %) 10 μM [1]: 14.37%; Degradation assay (Degradation %) 1 μM [2]: 87.84%; Degradation assay (Degradation %) 10 μM [2]: 63.85%; Kd [3]: 3.5 nM

Nc1ncc(-c2cnn(C3CCN(C(=O)CCC4CCN(C(=O)C5CCN(c6ccc7c(c6)C(=O)N(C6CCC(=O)NC6=O)C7=O)CC5)CC4)CC3)c2)nc1C(=O)O[C@@H](C(=O)Nc1ccc(F)cc1)c1ccccc1 (stereo partly drawn) [TDH-418, (R)-2-((4-fluorophenyl)amino)-2-oxo-1-phenylethyl 3-amino-6-(1-(1-(3-(1-(1-(2-(2,6-dioxopiperidin-3-yl)-1,3-dioxoisoindolin-5-yl)piperidine-4-carbonyl)piperidin-4-yl)propanoyl)piperidin-4-yl)-1H-pyrazol-4-yl)pyrazine-2-carboxylate] was tested. Which “Necroptosis inhibition assay (Rescue %) 1 μM” value [1] did it give?
The value was 28.11%.

What about the “Necroptosis inhibition assay (Rescue %) 10 μM” value [1] of the same compound?
The value was 17.31%.

What about the “Degradation assay (Degradation %) 1 μM” value [2] of the same compound?
Its value is 79.05%.

What about the “Degradation assay (Degradation %) 10 μM” value [2] of the same compound?
Its value is 58.33%.

What about the Kd [3] of the same compound?
Its Kd is 4 nM.

Nc1ncc(-c2cnn(C3CCN(C(=O)CCC4CCN(c5cccc6c5C(=O)N(C5CCC(=O)NC5=O)C6=O)CC4)CC3)c2)nc1C(=O)O[C@@H](C(=O)Nc1ccc(F)cc1)c1ccccc1 (stereo partly drawn) [TDH-419, (R)-2-((4-fluorophenyl)amino)-2-oxo-1-phenylethyl 3-amino-6-(1-(1-(3-(1-(2-(2,6-dioxopiperidin-3-yl)-1,3-dioxoisoindolin-4-yl)piperidin-4-yl)propanoyl)piperidin-4-yl)-1H-pyrazol-4-yl)pyrazine-2-carboxylate] was tested. Which “Necroptosis inhibition assay (Rescue %) 1 μM” value [1] did it give?
The value was 26.56%.

What about the “Necroptosis inhibition assay (Rescue %) 10 μM” value [1] of the same compound?
The value was 18.52%.

What about the “Degradation assay (Degradation %) 1 μM” value [2] of the same compound?
Its value is 82.06%.

And the “Degradation assay (Degradation %) 10 μM” value [2]?
Its value is 64.50%.

And the Kd [3]?
The Kd was 5.9 nM.

Nc1ncc(-c2cnn(C3CCN(C(=O)CCC4CCN(c5ccc6c(c5)C(=O)N(C5CCC(=O)NC5=O)C6=O)CC4)CC3)c2)nc1C(=O)O[C@@H](C(=O)Nc1ccc(F)cc1)c1ccccc1 (stereo partly drawn) [TDH-420, (R)-2-((4-fluorophenyl)amino)-2-oxo-1-phenylethyl 3-amino-6-(1-(1-(3-(1-(2-(2,6-dioxopiperidin-3-yl)-1,3-dioxoisoindolin-5-yl)piperidin-4-yl)propanoyl)piperidin-4-yl)-1H-pyrazol-4-yl)pyrazine-2-carboxylate] was tested. Which “Necroptosis inhibition assay (Rescue %) 1 μM” value [1] did it give?
Its value is 8.39%.

And the “Necroptosis inhibition assay (Rescue %) 10 μM” value [1]?
The value was 2.00%.

And the “Degradation assay (Degradation %) 1 μM” value [2]?
The value was 74.57%.

What about the “Degradation assay (Degradation %) 10 μM” value [2] of the same compound?
The value was 51.38%.

And the Kd [3]?
The Kd was 10 nM.

Which “Necroptosis inhibition assay (Rescue %) 1 μM” value [1] does the source give for Nc1ncc(-c2cnn(C3CCN(C(=O)CCC4CCN(C(=O)CNc5cccc6c5C(=O)N(C5CCC(=O)NC5=O)C6=O)CC4)CC3)c2)nc1C(=O)O[C@@H](C(=O)Nc1ccc(F)cc1)c1ccccc1 (stereo partly drawn) [TDH-421, (R)-2-((4-fluorophenyl)amino)-2-oxo-1-phenylethyl 3-amino-6-(1-(1-(3-(1-((2-(2,6-dioxopiperidin-3-yl)-1,3-dioxoisoindolin-4-yl)glycyl)piperidin-4-yl)propanoyl)piperidin-4-yl)-1H-pyrazol-4-yl)pyrazine-2-carboxylate] here?
The value was 37.14%.

And the “Necroptosis inhibition assay (Rescue %) 10 μM” value [1]?
The value was 35.74%.

And the “Degradation assay (Degradation %) 1 μM” value [2]?
Its value is 86.78%.

And the “Degradation assay (Degradation %) 10 μM” value [2]?
The value was 86.81%.

What about the Kd [3] of the same compound?
Its Kd is 5.3 nM.
